Consider 17 compounds from US12583866B2, “Pyrido[2,3-b][1,4]oxazines or tetrahydropyrido[2,3-b][1,4]oxazepines as IAP antagonists” (BEIGENE, LTD., priority 2020, dated 2026).

For assay [1], the target named is T1, recombinant human cIAP2-BIR3 protein (Homo sapiens, UniProt Q13489).
T1 construct: recombinant human cIAP2-BIR3 protein; purchased Reaction biology APT-11-372
The experiment in a line: Recombinant human c-IAP2-BIR3 biochemical assay (HTRF, peptide displacement). As to conditions: 3.7 nM cIAP2-BIR3, 3.7 nM AbuRPF-K(5-Fam)-NH2 peptide, read-out: Protein binding IC50 (nM) c-IAP2. The procedure, abridged: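 HTRF peptide-displacement readout (ex337, em520/490 ratio) after sequential 1 h room-temperature steps: compound with 3.7 nM protein, then 3.7 nM 5-Fam-labelled AbuRPF peptide, then Tb-cryptate anti-6His antibody. Buffer pH 7.5 HEPES with NaCl, Tween-20, DTT; 10-point 4-fold dilutions from 10 uM; four-parameter logistic IC50.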
In general terms: In TR-FRET formats the signal depends on donor and acceptor labels being close together.

Assay [2] concerns the target T2, recombinant human XIAP-BIR3 protein (Homo sapiens, UniProt P98170).
T2 construct: recombinant human XIAP-BIR3 protein; purchased Reaction biology APT-11-374
Description: Recombinant human XIAP-BIR3 biochemical assay (HTRF, peptide displacement). As to conditions: 3.7 nM XIAP-BIR3, 7.6 nM AbuRPF-K(5-Fam)-NH2 peptide, read-out: Protein binding IC50 (nM) XIAP. The gist of the method: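 HTRF peptide displacement with 7.6 nM 5-Fam-labelled AbuRPF peptide, anti-6His Tb donor and 3.7 nM recombinant XIAP-BIR3. Protein and compound (10-point, 4-fold from 10 µM) were preincubated 1 h RT in HEPES pH 7.5 buffer before each addition, each 1 h. IC50 by four-parameter fit of the 520/490 nm ratio.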

Assay [3] concerns the target T3, recombinant human cIAP1-BIR3 protein (Homo sapiens, UniProt Q13490).
T3 construct: recombinant human cIAP1-BIR3 protein; purchased Reaction biology APT-11-370
The experiment in a line: Recombinant human c-IAP1-BIR3 biochemical assay (HTRF, peptide displacement). As to conditions: 1.2 nM cIAP1-BIR3, 3 nM AbuRPF-K(5-Fam)-NH2 peptide, read-out: Protein binding IC50 (nM) c-IAP1. The gist of the method:
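HTRF peptide displacement: after 1 h compound pre-incubation (max 10 uM, 4-fold dilutions, 10 points) with 1.2 nM protein in HEPES pH 7.5 buffer, 3 nM 5-Fam-labelled AbuRPF-K peptide and Tb-anti-6His were each added for 1 h at room temperature. Inhibition taken from 520/490 nm ratio, fitted four-parameter logistic for IC50.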

T2 sequence (P98170 241-356 limits assumed): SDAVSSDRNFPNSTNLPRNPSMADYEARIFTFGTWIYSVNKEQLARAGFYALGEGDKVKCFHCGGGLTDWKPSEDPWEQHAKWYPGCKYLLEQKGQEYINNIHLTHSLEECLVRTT
T3 sequence (Q13490 253-363 limits assumed): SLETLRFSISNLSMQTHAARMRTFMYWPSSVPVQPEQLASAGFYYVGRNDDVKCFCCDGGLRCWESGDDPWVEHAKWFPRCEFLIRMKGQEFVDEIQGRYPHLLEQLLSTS
T1 sequence (Q13489 238-349 limits assumed): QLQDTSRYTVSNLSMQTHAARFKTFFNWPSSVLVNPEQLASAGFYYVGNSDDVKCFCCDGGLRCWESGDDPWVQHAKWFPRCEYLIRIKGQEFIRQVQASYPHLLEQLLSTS

By IC50 is commonly meant the concentration that gives 50% inhibition. Turning to `C[C@@H]1CN(CC(=O)N2c3cc(Cc4ccc(F)cc4)c(CN4CCOCC4)nc3OC[C@@H]2C)[C@@H](CN2[C@H](C)COC[C@H]2C)CN1` [Compound 92], the half-inhibitory concentration (IC50) in assay [1] was determined as 0.53 nM; in assay [2] it was 8.7 nM; in assay [3], 0.37 nM.
For `C[C@@H]1CN(CC(=O)N2c3cc(Cc4ccc(F)cc4)c(C(=O)NC[C@@H]4CCCO4)nc3OC[C@@H]2C)[C@@H](CN2[C@H](C)COC[C@H]2C)CN1` [Compound 93] the same measures were 0.46 nM, 4.6 nM and 0.19 nM.
On to `C[C@@H]1CN(CC(=O)N2c3cc(Cc4ccc(F)cc4)c(C(=O)NC[C@H]4CCCO4)nc3OC[C@@H]2C)[C@@H](CN2[C@H](C)COC[C@H]2C)CN1` [Compound 94, (S)-1-(2-((2R,5R)-2-(((3R,5R)-3,5-dimethylmorpholino)methyl)-5-methylpiperazin-1-yl)acetyl)-7-(4-fluorobenzyl)-2-methyl-N—(((R)-tetrahydrofuran-2-yl)methyl)-2,3-dihydro-1H-pyrido[2,3-b][1,4]oxazine-6-carboxamide], for which the half-maximal inhibitory concentration (IC50) in assay [1] was 0.28 nM; in assay [2], 3.3 nM; in assay [3], 0.16 nM.
For `C[C@@H]1CN(CC(=O)N2c3cc(Cc4ccc(F)cc4)c(C(=O)NC[C@@H]4CCOC4)nc3OC[C@@H]2C)[C@@H](CN2[C@H](C)COC[C@H]2C)CN1` [Compound 95, (S)-1-(2-((2R,5R)-2-(((3R,5R)-3,5-dimethylmorpholino)methyl)-5-methylpiperazin-1-yl)acetyl)-7-(4-fluorobenzyl)-2-methyl-N—(((S)-tetrahydrofuran-3-yl)methyl)-2,3-dihydro-1H-pyrido[2,3-b][1,4]oxazine-6-carboxamide] the same measures were 0.25 nM, 2.3 nM and 0.19 nM.
In the case of `C[C@@H]1CN(CC(=O)N2c3cc(Cc4ccc(F)cc4)c(C(=O)NC[C@H]4CCOC4)nc3OC[C@@H]2C)[C@@H](CN2[C@H](C)COC[C@H]2C)CN1` [Compound 96, (S)-1-(2-((2R,5R)-2-(((3R,5R)-3,5-dimethylmorpholino)methyl)-5-methylpiperazin-1-yl)acetyl)-7-(4-fluorobenzyl)-2-methyl-N—(((R)-tetrahydrofuran-3-yl)methyl)-2,3-dihydro-1H-pyrido[2,3-b][1,4]oxazine-6-carboxamide], the IC50 was determined as 0.23 nM in assay [1], 3.75 nM in assay [2] and 0.21 nM in assay [3].
`C[C@@H]1CN(CC(=O)N2c3cc(Cc4ccc(F)cc4)c(C(=O)NCCN(C)C)nc3OC[C@@H]2C)[C@@H](CN2[C@H](C)COC[C@H]2C)CN1` [Compound 97, (S)—N-(2-(dimethylamino)ethyl)-1-(2-((2R,5R)-2-(((3R,5R)-3,5-dimethylmorpholino)methyl)-5-methylpiperazin-1-yl)acetyl)-7-(4-fluorobenzyl)-2-methyl-2,3-dihydro-1H-pyrido[2,3-b][1,4]oxazine-6-carboxamide]: the results for the IC50 in assay [1], in assay [2] and in assay [3] were 0.51 nM, 12.5 nM and 0.27 nM, respectively.
For the compound `C[C@@H]1CN(CC(=O)N2c3cc(Cc4ccc(F)cc4)c(C(=O)NCC4CCN(C)CC4)nc3OC[C@@H]2C)[C@@H](CN2[C@H](C)COC[C@H]2C)CN1` [Compound 98, (S)-1-(2-((2R,5R)-2-(((3R,5R)-3,5-dimethylmorpholino)methyl)-5-methylpiperazin-1-yl)acetyl)-7-(4-fluorobenzyl)-2-methyl-N-((1-methylpiperidin-4-yl)methyl)-2,3-dihydro-1H-pyrido[2,3-b][1,4]oxazine-6-carb oxamide], the 50% inhibitory concentration (IC50) was 0.29 nM in assay [1], 8.2 nM in assay [2] and 0.13 nM in assay [3].
Regarding `C[C@@H]1CN(CC(=O)N2c3cc(Cc4ccc(F)cc4)c(C(=O)NCCN4CCN(C)CC4)nc3OC[C@@H]2C)[C@@H](CN2[C@H](C)COC[C@H]2C)CN1` [Compound 99, (S)-1-(2-((2R,5R)-2-(((3R,5R)-3,5-dimethylmorpholino)methyl)-5-methylpiperazin-1-yl)acetyl)-7-(4-fluorobenzyl)-2-methyl-N-(2-(4-methylpiperazin-1-yl)ethyl)-2,3-dihydro-1H-pyrido[2,3-b][1,4]oxazine-6-carboxamide], the figures for the IC50 in assay [1], in assay [2] and in assay [3] were 0.43 nM, 12.4 nM and 0.16 nM, respectively.
For the compound `C[C@@H]1CN(CC(=O)N2c3cc(Cc4ccc(F)cc4)c(C(=O)N4CC[C@H](F)C4)nc3OC[C@@H]2C)[C@@H](CN2[C@H](C)COC[C@H]2C)CN1` [Compound 100, 2-((2R,5R)-2-(((3R,5R)-3,5-dimethylmorpholino)methyl)-5-methylpiperazin-1-yl)-1-((S)-7-(4-fluorobenzyl)-6-((S)-3-fluoropyrrolidine-1-carbonyl)-2-methyl-2,3-dihydro-1H-pyrido[2,3-b][1,4]oxazin-1-yl)ethan-1-one], the results for the IC50 in assay [1], in assay [2] and in assay [3] were 0.44 nM, 4.2 nM and 0.17 nM, respectively.
For the compound `C[C@@H]1CN(CC(=O)N2c3cc(Cc4ccc(F)cc4)c(C(=O)N4CC[C@@H](F)C4)nc3OC[C@@H]2C)[C@@H](CN2[C@H](C)COC[C@H]2C)CN1` [Compound 101, 2-((2R,5R)-2-(((3R,5R)-3,5-dimethylmorpholino)methyl)-5-methylpiperazin-1-yl)-1-((S)-7-(4-fluorobenzyl)-6-((R)-3-fluoropyrrolidine-1-carbonyl)-2-methyl-2,3-dihydro-1H-pyrido[2,3-b][1,4]oxazin-1-yl)ethan-1-one], the IC50 in assay [1] stood at 0.37 nM; in assay [2], 2.5 nM; in assay [3] it was 0.19 nM.
For `C[C@@H]1CN(CC(=O)N2c3cc(Cc4ccc(F)cc4)c(C(=O)N4CCCCC4)nc3OC[C@@H]2C)[C@@H](CN2[C@H](C)COC[C@H]2C)CN1` [Compound 102, 2-((2R,5R)-2-(((3R,5R)-3,5-dimethylmorpholino)methyl)-5-methylpiperazin-1-yl)-1-((S)-7-(4-fluorobenzyl)-2-methyl-6-(piperidine-1-carbonyl)-2,3-dihydro-1H-pyrido[2,3-b][1,4]oxazin-1-yl)ethan-1-one] the same measures were 0.49 nM, 5.7 nM and 0.24 nM.
Regarding `C[C@@H]1CN(CC(=O)N2c3cc(Cc4ccc(F)cc4)c(C(=O)N4CCC(F)(F)CC4)nc3OC[C@@H]2C)[C@@H](CN2[C@H](C)COC[C@H]2C)CN1` [Compound 103, 1-((S)-6-(4,4-difluoropiperidine-1-carbonyl)-7-(4-fluorobenzyl)-2-methyl-2,3-dihydro-1H-pyrido[2,3-b][1,4]oxazin-1-yl)-2-((2R,5R)-2-(((3R,5R)-3,5-dimethylmorpholino)methyl)-5-methylpiperazin-1-yl)ethan-1-one], the results for the IC50 in assay [1], in assay [2] and in assay [3] were 0.43 nM, 5.1 nM and 0.24 nM, respectively.
The matching figures for `C[C@@H]1CN(CC(=O)N2c3cc(Cc4ccc(F)cc4)c(C(=O)N4CCN(C)CC4)nc3OC[C@@H]2C)[C@@H](CN2[C@H](C)COC[C@H]2C)CN1` [Compound 104]: 0.83 nM, 18.1 nM and 0.26 nM.
Consider `C[C@@H]1CN(CC(=O)N2c3cc(Cc4ccc(F)cc4)c(CO)nc3OC[C@@H]2C)[C@@H](CN2[C@H](C)CN(C)C[C@H]2C)CN1` [Compound 105, 1-((S)-7-(4-fluorobenzyl)-6-(hydroxymethyl)-2-methyl-2,3-dihydro-1H-pyrido[2,3-b][1,4]oxazin-1-yl)-2-((2R,5R)-5-methyl-2-(((2R,6R)-2,4,6-trimethylpiperazin-1-yl)methyl)piperazin-1-yl)ethan-1-one], for which the concentration for half-maximal inhibition (IC50) came out at 0.35 nM in assay [1], 11.3 nM in assay [2] and 0.28 nM in assay [3].
For `C[C@@H]1CN(CC(=O)N2c3cc(Cc4ccc(F)cc4)c(N4CCOCC4)nc3OC[C@@H]2C)[C@@H](CN2[C@H](C)COC[C@H]2C)CN1` [Compound 106, 2-((2R,5R)-2-(((3R,5R)-3,5-dimethylmorpholino)methyl)-5-methylpiperazin-1-yl)-1-((S)-7-(4-fluorobenzyl)-2-methyl-6-morpholino-2,3-dihydro-1H-pyrido[2,3-b][1,4]oxazin-1-yl)ethan-1-one] the same measures were 0.94 nM, 16.9 nM and 0.33 nM.
With `C[C@@H]1CN(CC(=O)N2c3cc(Cc4ccc(F)cc4)c(OCCO)nc3OC[C@@H]2C)[C@@H](CN2[C@H](C)COC[C@H]2C)CN1` [Compound 107], the IC50 in assay [1] was 0.41 nM; in assay [2] it was 4.4 nM; in assay [3], 0.23 nM.
`COCCNc1nc2c(cc1Cc1ccc(F)cc1)N(C(=O)CN1C[C@@H](C)NC[C@@H]1CN1[C@H](C)COC[C@H]1C)[C@@H](C)CO2` [Compound 108]: the figures for the IC50 in assay [1], in assay [2] and in assay [3] were 0.57 nM, 7.7 nM and 0.16 nM, respectively.
